Results from patent US4169197A, “6-Deoxyneamines aminoglycoside compounds” (The Upjohn Company, priority 1978, dated 1979).
Converted amounts (≈) assume the structure as drawn. Where two headings read alike, the source gives them in different places.

Assays:
Format in all cases: cell-based
B. cereus UC 3145 = test: standard disc plate assay, zones of inhibition; details: Bacillus cereus, 12.5 mm paper discs
From the text: (§1) The compounds of formulas (V, VII, IX, XI, XIV, XVI, and XIX) are active as antibacterials and can be used in various environments to erradicate or control susceptible microorganisms. Tables I and II set forth the in vitro antibacterial test results for representative compounds of the present invention. The results were obtained with a standard disc plate assay using 12.5 mm paper discs.

B. subtilis UC 564 = test: standard disc plate assay, zones of inhibition; details: Bacillus subtilis, UC564, 12.5 mm paper discs, read-out: Zones of Inhibition; for zone of inhibition at 100 µg/mL: 0.1 mg/ml; for zone of inhibition at 1000 µg/mL: 1 mg/ml
From the text: as §1

E. coli UC 51 = test: standard disc plate assay, zones of inhibition; details: Escherichia coli, UC51, 12.5 mm paper discs, read-out: Zones of Inhibition; for zone of inhibition at 100 µg/mL: 0.1 mg/ml; for zone of inhibition at 1000 µg/mL: 1 mg/ml
From the text: as §1

K. pneumoniae UC 57 = test: standard disc plate assay, zones of inhibition; details: Klebsiella pneumoniae, UC57, 12.5 mm paper discs, read-out: Zones of Inhibition; for zone of inhibition at 100 µg/mL: 0.1 mg/ml; for zone of inhibition at 1000 µg/mL: 1 mg/ml
From the text: as §1

P. vulgaris UC 93 [1] = test: standard disc plate assay, zones of inhibition; details: Proteus vulgaris, UC93, 1 mg/ml, 12.5 mm paper discs, read-out: Zones of Inhibition
From the text: as §1

Ps. aeruginosa UC 95 [2] = test: standard disc plate assay, zones of inhibition; details: Pseudomonas aeruginosa, UC95; 1 mg/ml; 12.5 mm paper discs; Table II; read-out: Zones of Inhibition
From the text: as §1

S. aureus UC 80 = test: standard disc plate assay, zones of inhibition; details: Staphylococcus aureus, 12.5 mm paper discs; for zone of inhibition at 100 µg/mL: 0.1 mg/ml
From the text: as §1

S. gallinarum UC 265 = test: standard disc plate assay, zones of inhibition; details: Salmonella enterica, 12.5 mm paper discs, read-out: Zones of Inhibition; for zone of inhibition at 100 µg/mL: 0.1 mg/ml; for zone of inhibition at 1000 µg/mL: 1 mg/ml
From the text: as §1

S. lutea UC 130 = test: standard disc plate assay, zones of inhibition; details: Micrococcus luteus, UC130, 1 mg/ml, 12.5 mm paper discs, read-out: Zones of Inhibition
From the text: as §1

S. schottmuelleri UC 126 [3] = test: standard disc plate assay, zones of inhibition; details: 1 mg/ml, 12.5 mm paper discs
From the text: as §1

E. coli UC 311 = test: standard microplate test in BHI Agar; details: Escherichia coli, UC311; BHI Agar, 37°, 20 hours; Table IV; read-out: Minimal Inhibitory Concentration
Description: (§2) The compounds VII, XI, XVβ, XVα and XVI were tested in a standard microplate test in BHI (Brain Heart Infusion) Agar at a concentration of 1 mg./ml. and dilutions thereof at 37° incubation temperature. The end points are read out 20 hours. BHI Agar is supplied by Difco Laboratories, Detroit, Mich.

K. pneumoniae UC 58 = test: standard microplate test in BHI Agar; details: Klebsiella pneumoniae, read-out: Minimal Inhibitory Concentration
Description: as §2

P. mirabilis UC 6671 = test: standard microplate test in BHI Agar; details: Proteus mirabilis, UC6671; BHI Agar, 37°, 20 hours; Table IV; read-out: Minimal Inhibitory Concentration
Description: as §2

P. morganii UC 3186 = test: standard microplate test in BHI Agar; details: Morganella morganii, read-out: Minimal Inhibitory Concentration
Description: as §2

P. rettgeri UC 339 = test: standard microplate test in BHI Agar; details: Providencia rettgeri, UC339; BHI Agar, 37°, 20 hours; Table IV; read-out: Minimal Inhibitory Concentration
Description: as §2

P. vulgaris UC 93 [4] = test: standard microplate test in BHI Agar; details: Proteus vulgaris, UC93; BHI Agar, 37°, 20 hours; Table IV; read-out: Minimal Inhibitory Concentration
Description: as §2

Ps. aeruginosa UC 95 [5] = test: standard microplate test in BHI Agar; details: Pseudomonas aeruginosa, UC95; BHI Agar, 37°, 20 hours; Table IV; read-out: Minimal Inhibitory Concentration
Description: as §2

S. aureus UC 76 = test: standard microplate test in BHI Agar; details: Staphylococcus aureus, read-out: Minimal Inhibitory Concentration
Description: as §2

S. faecalis UC 694 = test: standard microplate test in BHI Agar; details: Enterococcus faecalis, UC694, 20 h, read-out: Minimal Inhibitory Concentration
Description: as §2

S. flexneri UC 143 = test: standard microplate test in BHI Agar; details: Shigella flexneri, UC143, 37°, 20 hours, Table IV, read-out: Minimal Inhibitory Concentration
Description: as §2

S. marcescens UC 131 = test: standard microplate test in BHI Agar; details: Serratia marcescens, UC131; BHI Agar, 37°, 20 hours; Table IV; read-out: Minimal Inhibitory Concentration
Description: as §2

S. pneumoniae I UC 41 = test: standard microplate test in BHI Agar; details: Streptococcus pneumoniae, read-out: Minimal Inhibitory Concentration
Description: as §2

S. pyogenes UC 152 = test: standard microplate test in BHI Agar; details: Streptococcus pyogenes, read-out: Minimal Inhibitory Concentration
Description: as §2

S. schottmuelleri UC 126 [6] = test: standard microplate test in BHI Agar; details: 37°, 20 hours, Table IV, read-out: Minimal Inhibitory Concentration
Description: as §2

S. typhi UC 215 = test: standard microplate test in BHI Agar; details: Salmonella enterica, 20 h, read-out: Minimal Inhibitory Concentration
Description: as §2

| SMILES | zone of inhibition at 100 µg/mL (B. subtilis UC 564; Table I) [mm] | zone of inhibition at 1000 µg/mL (B. subtilis UC 564; Table I) [mm] | zone of inhibition at 1000 µg/mL (E. coli UC 51; Table I) [mm] | zone of inhibition at 1000 µg/mL (K. pneumoniae UC 57; Table I) [mm] | zone of inhibition at 1000 µg/mL (P. vulgaris UC 93 [1]; Table I) [mm] | zone of inhibition at 1000 µg/mL (S. gallinarum UC 265; Table I) [mm] | zone of inhibition at 1000 µg/mL (S. schottmuelleri UC 126 [3]; Table I) [mm] | MIC (E. coli UC 311) [µg/mL] | MIC (P. mirabilis UC 6671) [µg/mL] | MIC (P. rettgeri UC 339) [µg/mL] | MIC (P. vulgaris UC 93 [4]) [µg/mL] | MIC (Ps. aeruginosa UC 95 [5]) [µg/mL] | MIC (S. faecalis UC 694) [µg/mL] | MIC (S. flexneri UC 143) [µg/mL] | MIC (S. marcescens UC 131) [µg/mL] | MIC (S. schottmuelleri UC 126 [6]) [µg/mL] | MIC (S. typhi UC 215) [µg/mL] | other results |
| --- | --- | --- | --- | --- | --- | --- | --- | --- | --- | --- | --- | --- | --- | --- | --- | --- | --- | --- |
| NC[C@H]1O[C@H](O[C@@H]2[C@@H](N)C[C@@H](N)C[C@@H]2O)[C@H](N)[C@@H](O)[C@@H]1O [6-Deoxy-5-epineamine (XI), 6-deoxy-5-epineamine] | – | – | – | – | – | – | – | – | – | – | – | – | – | – | – | – | – | zone of inhibition at 1000 µg/mL (B. cereus UC 3145; UC3145, 1 mg/ml, Table II, read-out: Zones of Inhibition): 22 mm; zone of inhibition at 100 µg/mL (B. subtilis UC 564; Table II): 26 mm; zone of inhibition at 1000 µg/mL (B. subtilis UC 564; Table II): 35 mm; zone of inhibition at 100 µg/mL (E. coli UC 51; Table II): 16 mm; zone of inhibition at 1000 µg/mL (E. coli UC 51; Table II): 24 mm; zone of inhibition at 100 µg/mL (K. pneumoniae UC 57; Table II): 23 mm; zone of inhibition at 1000 µg/mL (K. pneumoniae UC 57; Table II): 30 mm; zone of inhibition at 1000 µg/mL (P. vulgaris UC 93 [1]; Table II): 24 mm; zone of inhibition at 1000 µg/mL (Ps. aeruginosa UC 95 [2]): 17 mm; zone of inhibition at 100 µg/mL (S. aureus UC 80; UC80, Table II, read-out: Zones of Inhibition): 17 mm; zone of inhibition at 1000 µg/mL (S. aureus UC 80; UC80, 1 mg/ml, Table II, read-out: Zones of Inhibition): 24 mm; zone of inhibition at 100 µg/mL (S. gallinarum UC 265; Table II): 18 mm; zone of inhibition at 1000 µg/mL (S. gallinarum UC 265; Table II): 27 mm; zone of inhibition at 1000 µg/mL (S. lutea UC 130; Table II): 17 mm; zone of inhibition at 1000 µg/mL (S. schottmuelleri UC 126 [3]; Table II): 21 mm |
| NC[C@H]1O[C@H](O[C@@H]2[C@@H](N)C[C@@H](N)C[C@H]2O[C@@H]2C[C@@H](N)[C@H](O)[C@@H](CO)O2)[C@H](N)[C@@H](O)[C@@H]1O [Compound XVI, O-2,6-diamino-2,6-dideoxy-α-D-glucopyranosyl (1→4)-O-[3-amino-2,3-dideoxy-α-D-arabinohexopyranosyl(1→5)]-2,6-dideoxy-D-streptamine] | 25 | 34 | 19 | 24 | 18 | 20 | 15 | > 500 | > 500 | > 500 | > 500 | > 500 | > 500 | > 500 | > 500 | > 500 | > 500 | zone of inhibition at 1000 µg/mL (B. cereus UC 3145; UC3145, 1 mg/ml, Table I, read-out: Zones of Inhibition): 18 mm; zone of inhibition at 1000 µg/mL (S. aureus UC 80; UC80, read-out: Zones of Inhibition, 1 mg/ml, Table I): 21 mm; MIC (K. pneumoniae UC 58; UC58, BHI Agar, 37°, 20 hours, Table IV): 125 µg/mL (≈ 277 µM); MIC (P. morganii UC 3186; UC3186, BHI Agar, 37°, 20 hours, Table IV): 250 µg/mL (≈ 554 µM); MIC (S. aureus UC 76; UC76, BHI Agar, 37°, 20 hours, Table IV): 250 µg/mL (≈ 554 µM); MIC (S. pneumoniae I UC 41; UC41, BHI Agar, 37°, 20 hours, Table IV (printed D. pneumoniae UC 41)): > 500 µg/mL; MIC (S. pyogenes UC 152; UC152, BHI Agar, 37°, 20 hours, Table IV): 250 µg/mL (≈ 554 µM) |
| NC[C@H]1O[C@H](O[C@@H]2[C@@H](N)C[C@@H](N)C[C@H]2O[C@H]2O[C@H](CO)[C@@H](O)[C@H]2O)[C@H](N)[C@@H](O)[C@@H]1O [Compound XVα, O-2,6-diamino-2,6-dideoxy-α-D-glucopyranosyl (1→4)-O-[α-D-ribofuranosyl(1→5)]-2,6-dieoxy-D-streptamine] | 25 | 34 | 24 | 31 | 23 | 26 | 20 | 250 (≈ 570 µM) | > 500 | > 500 | 500 (≈ 1140 µM) | > 500 | > 500 | 500 (≈ 1140 µM) | 500 (≈ 1140 µM) | 125 (≈ 285 µM) | 62.5 (≈ 143 µM) | zone of inhibition at 1000 µg/mL (B. cereus UC 3145; UC3145, read-out: Zones of Inhibition, 1 mg/ml, Table I): 20 mm; zone of inhibition at 100 µg/mL (E. coli UC 51; Table I): 17 mm; zone of inhibition at 100 µg/mL (K. pneumoniae UC 57; Table I): 23 mm; zone of inhibition at 100 µg/mL (S. aureus UC 80; UC80, Table I, read-out: Zones of Inhibition): 17 mm; zone of inhibition at 1000 µg/mL (S. aureus UC 80; UC80, 1 mg/ml, Table I, read-out: Zones of Inhibition): 25 mm; zone of inhibition at 100 µg/mL (S. gallinarum UC 265; Table I): 17 mm; zone of inhibition at 1000 µg/mL (S. lutea UC 130; Table I): 16 mm; MIC (K. pneumoniae UC 58; UC58, 20 h): 15.6 µg/mL (≈ 35.6 µM); MIC (P. morganii UC 3186; UC3186, 20 h): 125 µg/mL (≈ 285 µM); MIC (S. aureus UC 76; UC76, 20 h): 125 µg/mL (≈ 285 µM); MIC (S. pneumoniae I UC 41; UC41, 20 h): 125 µg/mL (≈ 285 µM); MIC (S. pyogenes UC 152; UC152, 20 h): 31.2 µg/mL (≈ 71.2 µM) |
